Read-outs that look alike come from different tables or passages of the source.
Key:
human ETB receptor = biological target: T1, human ETB receptor (Homo sapiens, UniProt P24530); test: Binding Test #2: inhibition of 125I-ET-1 binding to ETB receptors (transfected COS7 cell membranes); conditions: read-out: ETB
T1 construct: expressed in transfected cells; host or cells: COS7 cells
T1 sequence (P24530 27-442): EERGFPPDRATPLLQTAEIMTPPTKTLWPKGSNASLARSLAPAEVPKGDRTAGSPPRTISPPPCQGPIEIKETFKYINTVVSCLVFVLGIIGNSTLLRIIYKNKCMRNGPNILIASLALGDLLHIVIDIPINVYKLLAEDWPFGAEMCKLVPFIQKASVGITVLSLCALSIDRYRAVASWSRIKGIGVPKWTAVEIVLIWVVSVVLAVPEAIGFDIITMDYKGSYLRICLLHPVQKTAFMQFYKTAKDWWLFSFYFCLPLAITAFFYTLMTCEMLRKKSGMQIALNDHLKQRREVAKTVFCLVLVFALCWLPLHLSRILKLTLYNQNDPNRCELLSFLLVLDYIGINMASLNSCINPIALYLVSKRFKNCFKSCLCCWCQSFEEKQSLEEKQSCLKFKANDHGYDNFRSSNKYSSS
Source text: (§1) Compounds that are potential endothelin antagonists are identified by testing their ability to compete with ^125I-labeled ET-1 for binding to human ETA receptors or ETB receptors present on isolated cell membranes. The effectiveness of the test compound as an antagonist or agonist of the biological tissue response of endothelin can also be assessed by measuring the effect on endothelin induced contraction of isolated rat thoracic aortic rings. The ability of the compounds to act as antagonists or agonists for ETB receptors can be assess by testing the ability of the compounds are to inhibit endothelin-1 induced prostacyclin release from cultured bovine aortic endothelial cells.
B. Endothelin Binding Inhibition—Binding Test #2: Inhibition of Binding to ETB Receptors
COS7 cells were transfected with DNA encoding the ETB receptor, The resulting cells, which express the human ETB receptor, were grown to confluence in T-150 flasks. Membrane was prepared as described above. The binding assay was performed as described above using the membrane preparation diluted with binding buffer to a concentration of 1 μg/50 μl.
Briefly, the COS7 cells, described above, that had been transfected with DNA encoding the ETB receptor and express the human ETB receptor on their surfaces were grown to confluence in T-1 75 flasks. Cells from multiple flasks were collected by scraping, pooled and centrifuged for 10 min at 190×g. The cells were resuspended in phosphate buffered saline (PBS) containing 10 mM EDTA using a Tenbroeck homogenizer. The suspension was centrifuged at 4° C. 57,800 X g for 15 min, the pellet was resuspended in 5 ml of buffer A (5mM HEPES buffer, pH 7.4 containing aprotinin (100 KIU/ml)) and then frozen and thawed once. Five ml of Buffer B (5 mM HEPES Buffer, pH 7.4 containing 10 mM MnCl2 and 0.001% deoxyribonuclease Type 1) was added, the suspension mixed by inversion and then incubated at 37° C. for 30 minutes. The mixture was centrifuged at 57,800×g as described above, the pellet washed twice with buffer A and then resuspended in buffer C (30 mM HEPES buffer, pH 7.4 containing aprotinin (100 KIU/ml) to give a final protein concentration of 2 mg/ml.
The binding assay was performed as described above using the membrane preparation diluted to give 1 μg/50 μl of binding buffer.

human ETA receptors = biological target: T2, human ETA receptors (Homo sapiens, UniProt P25101); test: Binding Test #1: inhibition of 125I-ET-1 binding to ETA receptors (TE 671 cell membranes); conditions: read-out: ETA
T2 construct: endogenous in cells; host or cells: TE 671 cells (ATCC HTB 139)
T2 sequence (P25101 21-427): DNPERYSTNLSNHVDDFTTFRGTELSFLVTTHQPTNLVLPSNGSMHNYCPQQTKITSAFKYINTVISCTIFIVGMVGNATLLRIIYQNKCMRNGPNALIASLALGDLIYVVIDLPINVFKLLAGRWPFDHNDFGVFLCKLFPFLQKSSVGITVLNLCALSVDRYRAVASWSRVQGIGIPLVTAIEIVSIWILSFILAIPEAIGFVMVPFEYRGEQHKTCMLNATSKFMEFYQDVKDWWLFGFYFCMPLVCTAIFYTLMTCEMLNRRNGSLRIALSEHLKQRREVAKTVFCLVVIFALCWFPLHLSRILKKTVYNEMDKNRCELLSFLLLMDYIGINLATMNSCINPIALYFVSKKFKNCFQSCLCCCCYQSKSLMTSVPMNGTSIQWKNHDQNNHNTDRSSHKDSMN
Source text: as §1
A. Endothelin Binding Inhibition—Binding Test #1: Inhibition of Binding to ETA Receptors
TE 671 cells (ATCC Accession No. HTB 139) express ETA receptors. These cells were grown to confluence in T-175 flasks. Cells from multiple flasks were collected by scraping, pooled and centrifuged for 10 min at 190×g. The cells were resuspended in phosphate buffered saline (PBS) containing 10 mM EDTA using a Tenbroeck homogenizer. The suspension was centrifuged at 4° C. at 57,800×g for 15 min, the pellet was resuspended in 5 ml of buffer A (5 mM HEPES buffer, pH 7.4 containing aprotinin (100 KIU/ml)) and then frozen and thawed once. 5 ml of Buffer B (5 mM HEPES Buffer, pH 7.4 containing 10 mM MnCl2 and 0.001% deoxyribonuclease Type 1) was added, the suspension mixed by inversion and then incubated at 37° C. for 30 minutes. The mixture was centrifuged at 57,800×g as described above, the pellet washed twice with buffer A and then resuspended in buffer C (30 mM HEPES buffer, pH 7.4 containing aprotinin (100 KIU/ml) to give a final protein concentration of 2 mg/ml and stored at −70° C. until use.
The membrane suspension was diluted with binding buffer (30 mM HEPES buffer, pH 7.4 containing 150 mM NaCl, 5mM MgCl2, 0.5% Bacitracin) to a concentration of 8 μg/50 μl. ^125I-endothelin-1 (3,000 cpm, […]) was added to 50 μL of either: (A) endothelin-1 (for non specific binding) to give a final concentration 80 nM); (B) binding buffer (for total binding); or (C) a test compound (final concentration 1 nM to 100 μM). The membrane suspension (50 μL), containing up to 8 μg of membrane protein, was added to each of (A), (B), or (C). Mixtures were shaken, and incubated at 4° C. for 16-18 hours, and then centrifuged at […] for 25 min at 2,500×g. Alternatively, the incubation was conducted at 24° C. […] This, must be kept in mind when comparing IC50 concentrations among compounds provided herein.
The supernatant, containing unbound radioactivity, was decanted and the pellet counted on a Genesys multiwell gamma counter. The degree of inhibition of binding (D) was calculated according to the following equation: [formula]
Each test was generally performed in triplicate.

[1] = Table 2, † incubation at 24° C.
[2] = Table 1, † incubation at 24° C.

Row | SMILES | IC50 (human ETB receptor; Table 1, incubation at 4° C.) [nM] | IC50 (human ETA receptors; Table 1, incubation at 4° C.) [nM] | other results
1 | Cc1noc(NS(=O)(=O)c2cc(Br)c(Br)s2)c1Br [N-(4-Bromo-3-methyl-5-isoxazolyl)-4,5-dibromothiophene-2-sulfonamide] | 2580 | 281 | –
2 | Cc1noc(NS(=O)(=O)c2cc(Cl)c(Cl)s2)c1Br [N-(4-Bromo-3-methyl-5-isoxazolyl)-4,5-dichlorothiophene-2-sulfonamide] | ~4900 | ~450 | –
3 | Cc1noc(NS(=O)(=O)c2c(Cl)sc(Cl)c2Br)c1Br [N-(4-Bromo-3-methyl-5-isoxazolyl)-4-bromo-2,5-dichlorothiophene-3-sulfonamide] | 10400 | ~280 | –
4 | Cc1noc(NS(=O)(=O)c2ccc(CNC(=O)c3ccc(Cl)cc3)s2)c1Br [N-(4-Bromo-3-methyl-5-isoxazolyl)-5-(4-chlorobenzamidomethyl)thiophene-2-sulfonamide] | 2570 | 311 | –
5 | Cc1noc(NS(=O)(=O)c2sc3ccc(Cl)cc3c2C)c1Br [N-(4-Bromo-3-methyl-5-isoxazolyl)-5-chloro-3-methylbenzo[b]thiophene-2-sulfonamide] | 1630 | 960 | –
6 | Cc1noc(NS(=O)(=O)c2ccc(-c3cc(C(F)(F)F)n(C)n3)s2)c1Br [N-(4-Bromo-3-methyl-5-isoxazolyl)-5-{3-[1-methyl-5-(trifluoromethyl)pyrazolyl]}thiophene-2-sulfonamide] | ~360 | ~6700 | –
7 | Cc1c(C(F)(F)F)noc1NS(=O)(=O)c1ccc(-c2ccccc2)cc1 [N-(4-Methyl-3-trifluoromethyl-5-isoxazolyl)-4-biphenylsulfonamide] | – | – | IC50 (human ETB receptor; Table 2, incubation at 4° C.): 1700 nM; IC50 (human ETB receptor; [1]): 5620 nM; IC50 (human ETA receptors; Table 2, incubation at 4° C.): 19000 nM
8 | CCCCCCCCCCCCCc1c(C(F)(F)F)noc1NS(=O)(=O)c1ccc(-c2ccccc2)cc1 [N-(4-Tridecyl-3-trifluoromethyl-5-isoxazolyl)-4-biphenylsulfonamide] | – | – | IC50 (human ETB receptor; Table 2, incubation at 4° C.): 990 ± 200 nM; IC50 (human ETB receptor; [1]): 950 nM; IC50 (human ETA receptors; Table 2, incubation at 4° C.): 34000 ± 9000 nM; IC50 (human ETA receptors; [1]): 33000 nM
9 | Cc1noc(NS(=O)(=O)c2cc3ccccc3n2C)c1Br [N-(4-bromo-3-methyl-5-isoxazolyl)-1-methylindole-2-sulfonamide] | – | – | IC50 (human ETB receptor; [2]): ~100000 nM; IC50 (human ETA receptors; [2]): 77000 nM
10 | Cc1cc(S(=O)(=O)Nc2onc(C)c2Br)c(C)o1 [N-(4-bromo-3-methyl-5-isoxazolyl)-2,5-dimethylfuran-3-sulfonamide] | 36500 | 460 | –
11 | Cc1ccc(C=CCc2sccc2S(=O)(=O)Nc2onc(C)c2Br)c(C)c1 [N-(4-bromo-3-methyl-5-isoxazolyl)-2-(2,4-dimethylcinnamyl)thiophene-3-sulfonamide] | – | – | IC50 (human ETB receptor; [2]): 2970 nM; IC50 (human ETA receptors; [2]): 166 nM

Now from value to molecule, other results behind:

Row | IC50 (human ETB receptor; Table 1, incubation at 4° C.) [nM] | IC50 (human ETA receptors; Table 1, incubation at 4° C.) [nM] | SMILES | other results
12 | 5860 | 3 | COc1cccc(NC(=O)c2sccc2S(=O)(=O)Nc2onc(C)c2Br)c1 [N-(4-Bromo-3-methyl-5-isoxazolyl)-2-[N-(3-methoxyphenyl)aminocarbonyl]thiophene-3-sulfonamide] | –
13 | 912 | 37.6 | Cc1noc(NS(=O)(=O)c2ccsc2C(=O)Nc2ccc(-c3ccccc3)cc2)c1Br [N-(4-Bromo-3-methyl-5-isoxazolyl)-2-[N-(4-biphenyl)aminocarbonyl]thiophene-3-sulfonamide] | –
14 | 849 | 1.6 | CCc1ccc(NC(=O)c2sccc2S(=O)(=O)Nc2onc(C)c2Br)cc1 [N-(4-Bromo-3-methyl-5-isoxazolyl)-2-[N-(4-ethylphenyl)aminocarbonyl]thiophene-3-sulfonamide] | –
15 | 2120 | 2 | COc1ccc(NC(=O)c2sccc2S(=O)(=O)Nc2onc(C)c2Br)cc1 [N-(4-Bromo-3-methyl-5-isoxazolyl)-2-[N-(4-methoxyphenyl)aminocarbonyl]thiophene-3-sulfonamide] | –
16 | 2700 | 3840 | Cc1noc(NS(=O)(=O)c2ccc(-c3ccccn3)s2)c1Br [N-(4-Bromo-3-methyl-5-isoxazolyl)-5-(2-pyridyl)thiophene-2-sulfonamide] | –
17 | 333 | 570 | Cc1noc(NS(=O)(=O)c2ccc(S(=O)(=O)c3ccccc3)s2)c1Br [N-(4-Bromo-3-methyl-5-isoxazolyl)-5-benzenesulfonylthiophene-2-sulfonamide] | –
18 | 27700 ± 15000 | 95 ± 70 | Cc1noc(NS(=O)(=O)c2cccs2)c1Br [N-(4-bromo-3-methyl-5-isoxazolyl)2-thiophenesulfonamide] | –
19 | ~100000 | 1400 | Cc1noc(NS(=O)(=O)c2c(C)sc(C)c2-c2ccccc2)c1Br [N-(4-bromo-3-methyl-5-isoxazolyl)-2,5-dimethyl-4-phenylthiophene-3-sulfonamide] | –
20 | 2840 | 44 | CCCCc1ccc(NC(=O)c2sccc2S(=O)(=O)Nc2onc(C)c2Br)cc1 [N-(4-bromo-3-methyl-5-isoxazolyl)-2-(4-butylphenyl)aminocarbonylthiophene-3-sulfonamide] | –
21 | 2820 | 11 | Cc1noc(NS(=O)(=O)c2ccsc2C(=O)Nc2ccc(C(C)(C)C)cc2)c1Br [N-(4-bromo-3-methyl-5-isoxazolyl)-2-(4-t-butylphenyl)aminocarbonylthiophene-3-sulfonamide] | –
22 | 18800 | 5.4 | Cc1noc(NS(=O)(=O)c2ccsc2C(=O)Nc2ccccc2)c1Br [N-(4-bromo-3-methyl-5-isoxazolyl)-2-(N-phenylaminocarbonyl)thiophene-3-sulfonamide] | –

From patent publication US6683103B2, “Sulfonamides for treatment of endothelin-mediated disorders” (Texas Biotechnology Corporation, priority 1997, dated 2004)
